Results published in ChEMBL document CHEMBL1795262, “Pyrazole-based sulfonamide and sulfamides as potent inhibitors of mammalian 15-lipoxygenase” (Bioorg Med Chem Lett, 2011).
In brackets after ≈: the same amount, converted by molar mass.

Species: Oryctolagus cuniculus
Experiment: Inhibition of 15-HETE production in New Zealand White rabbit whole blood at 3 uM by RP-HPLC
Type: functional

Structure (SMILES)	inhibition at 3 µM [%]
CN([C@@H]1CCN(Cc2ccccc2)C1)S(=O)(=O)NCCc1c(-c2cccs2)n[nH]c1-c1cnccn1	51
CCN([C@@H]1CCN([C@@H](C)c2ccccc2)C1)S(=O)(=O)NCCc1c(-c2cccs2)n[nH]c1-c1cnccn1	69
CN([C@@H]1CCN(Cc2ccccc2)C1)S(=O)(=O)NCCc1c(-c2cccs2)n[nH]c1-c1cccs1	40
CCN([C@@H]1CCN(C(C)c2ccc(F)cc2)C1)S(=O)(=O)NCCc1c(-c2cccs2)n[nH]c1-c1cnccn1 (stereo not given in full)	73

Target: T1, Polyunsaturated fatty acid lipoxygenase ALOX15 (Oryctolagus cuniculus, UniProt P12530)
T1 sequence (P12530 whole entry): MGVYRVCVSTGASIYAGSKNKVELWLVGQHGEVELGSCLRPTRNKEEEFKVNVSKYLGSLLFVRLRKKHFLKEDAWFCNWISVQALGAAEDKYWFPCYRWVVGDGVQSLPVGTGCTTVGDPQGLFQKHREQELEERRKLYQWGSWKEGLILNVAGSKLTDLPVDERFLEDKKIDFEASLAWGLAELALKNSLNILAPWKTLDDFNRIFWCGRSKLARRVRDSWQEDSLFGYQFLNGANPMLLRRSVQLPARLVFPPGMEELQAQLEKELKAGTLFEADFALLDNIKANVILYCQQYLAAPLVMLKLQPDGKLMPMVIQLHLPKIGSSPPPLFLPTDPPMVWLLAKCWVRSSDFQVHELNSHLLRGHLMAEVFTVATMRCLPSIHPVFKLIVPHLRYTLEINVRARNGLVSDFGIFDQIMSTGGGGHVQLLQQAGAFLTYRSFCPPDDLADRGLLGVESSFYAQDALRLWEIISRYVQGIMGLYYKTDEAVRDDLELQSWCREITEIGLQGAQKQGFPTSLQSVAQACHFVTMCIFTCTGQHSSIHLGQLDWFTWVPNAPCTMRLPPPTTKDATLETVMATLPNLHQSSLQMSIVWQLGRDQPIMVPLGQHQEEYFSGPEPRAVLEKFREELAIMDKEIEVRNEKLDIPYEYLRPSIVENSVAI
Experiment: Inhibition of rabbit 15-LO using linoleic acid by standard colorimetric assay

Structure (SMILES)	IC50 [nM]
CN([C@@H]1CCN(Cc2ccccc2)C1)S(=O)(=O)NCCc1c(-c2cccs2)n[nH]c1-c1ccccc1	3.6
CCCCCc1ccc(S(=O)(=O)NCCc2c(-c3ccccc3)n[nH]c2-c2ccccc2)cc1	35
COc1cccc(-c2[nH]nc(-c3cccs3)c2CCNS(=O)(=O)N(C)[C@@H]2CCN(Cc3ccccc3)C2)c1	1.5
CCCCCc1ccc(S(=O)(=O)NCCc2c(-c3cccs3)n[nH]c2-c2cccs2)cc1	4
Cc1cc(-c2[nH]nc(-c3cccs3)c2CCNS(=O)(=O)N(C)[C@@H]2CCN(Cc3ccccc3)C2)no1	4.2
CCCCCc1ccc(S(=O)(=O)NCCc2c(-c3cccs3)n[nH]c2-c2cccc(OC)c2)cc1	9
CN([C@@H]1CCN(Cc2ccccc2)C1)S(=O)(=O)NCCc1c(-c2cccs2)n[nH]c1-c1cnccn1	3
CCN([C@@H]1CCN([C@@H](C)c2ccccc2)C1)S(=O)(=O)NCCc1c(-c2cccs2)n[nH]c1-c1cnccn1	1.8
CN([C@@H]1CCN(Cc2ccccc2)C1)S(=O)(=O)NCCc1c(-c2cccs2)n[nH]c1-c1cccs1	2

Target: T1, Polyunsaturated fatty acid lipoxygenase ALOX15
Experiment: Inhibition of rabbit 15-LO using arachidonic acid by standard colorimetric assay

Structure (SMILES)	IC50 [nM]
CN([C@@H]1CCN(Cc2ccccc2)C1)S(=O)(=O)NCCc1c(-c2cccs2)n[nH]c1-c1ccccc1	7.5
CCCCCc1ccc(S(=O)(=O)NCCc2c(-c3ccccc3)n[nH]c2-c2ccccc2)cc1	313
COc1cccc(-c2[nH]nc(-c3cccs3)c2CCNS(=O)(=O)N(C)[C@@H]2CCN(Cc3ccccc3)C2)c1	4.3
CCCCCc1ccc(S(=O)(=O)NCCc2c(-c3cccs3)n[nH]c2-c2cccs2)cc1	19
Cc1cc(-c2[nH]nc(-c3cccs3)c2CCNS(=O)(=O)N(C)[C@@H]2CCN(Cc3ccccc3)C2)no1	15
CCCCCc1ccc(S(=O)(=O)NCCc2c(-c3cccs3)n[nH]c2-c2cccc(OC)c2)cc1	53
CN([C@@H]1CCN(Cc2ccccc2)C1)S(=O)(=O)NCCc1c(-c2cccs2)n[nH]c1-c1cnccn1	7
CCN([C@@H]1CCN([C@@H](C)c2ccccc2)C1)S(=O)(=O)NCCc1c(-c2cccs2)n[nH]c1-c1cnccn1	2.4
CN([C@@H]1CCN(Cc2ccccc2)C1)S(=O)(=O)NCCc1c(-c2cccs2)n[nH]c1-c1cccs1	7

Species: Oryctolagus cuniculus
Experiment: Inhibition of 15-HETE production in New Zealand White rabbit whole blood at 1 uM by RP-HPLC
Type: functional

Structure (SMILES)	inhibition at 1 µM [%]
CCN([C@@H]1CCN([C@@H](C)c2ccccc2)C1)S(=O)(=O)NCCc1c(-c2cccs2)n[nH]c1-c1cnccn1	39
CCN([C@@H]1CCN(C(C)c2ccc(F)cc2)C1)S(=O)(=O)NCCc1c(-c2cccs2)n[nH]c1-c1cnccn1 (stereo not given in full)	45

Species: Oryctolagus cuniculus
Experiment: Inhibition of 15-HETE production in New Zealand White rabbit whole blood at 10 uM by RP-HPLC
Type: functional

Structure (SMILES)	inhibition at 10 µM [%]
CN([C@@H]1CCN(Cc2ccccc2)C1)S(=O)(=O)NCCc1c(-c2cccs2)n[nH]c1-c1ccccc1	44
COc1cccc(-c2[nH]nc(-c3cccs3)c2CCNS(=O)(=O)N(C)[C@@H]2CCN(Cc3ccccc3)C2)c1	43
CCCCCc1ccc(S(=O)(=O)NCCc2c(-c3cccs3)n[nH]c2-c2cccs2)cc1	25
Cc1cc(-c2[nH]nc(-c3cccs3)c2CCNS(=O)(=O)N(C)[C@@H]2CCN(Cc3ccccc3)C2)no1	71

Target: T2, Polyunsaturated fatty acid lipoxygenase ALOX12 (Homo sapiens) (UniProt P18054)
T2 sequence (whole entry): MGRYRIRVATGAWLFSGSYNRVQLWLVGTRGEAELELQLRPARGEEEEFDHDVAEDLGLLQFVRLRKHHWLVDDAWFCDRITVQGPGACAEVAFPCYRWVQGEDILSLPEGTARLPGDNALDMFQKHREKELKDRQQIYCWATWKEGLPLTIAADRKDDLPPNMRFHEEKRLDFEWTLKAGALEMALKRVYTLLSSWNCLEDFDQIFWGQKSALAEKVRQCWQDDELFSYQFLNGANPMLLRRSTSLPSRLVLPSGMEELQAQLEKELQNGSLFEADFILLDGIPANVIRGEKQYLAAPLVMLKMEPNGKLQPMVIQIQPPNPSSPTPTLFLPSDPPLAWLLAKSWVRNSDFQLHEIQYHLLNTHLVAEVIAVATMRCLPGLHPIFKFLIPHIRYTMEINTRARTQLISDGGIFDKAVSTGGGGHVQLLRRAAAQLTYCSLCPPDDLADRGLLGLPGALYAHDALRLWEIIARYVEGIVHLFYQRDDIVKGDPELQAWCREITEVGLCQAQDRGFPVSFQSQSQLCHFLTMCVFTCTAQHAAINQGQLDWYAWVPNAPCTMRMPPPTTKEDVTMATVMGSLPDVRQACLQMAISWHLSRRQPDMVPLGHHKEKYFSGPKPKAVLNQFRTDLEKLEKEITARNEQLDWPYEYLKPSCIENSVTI
Experiment: Inhibition of 12-LO at 10 uM

Structure (SMILES)	inhibition [%]
CCCCCc1ccc(S(=O)(=O)NCCc2c(-c3cccs3)n[nH]c2-c2cccs2)cc1	35
CCN([C@@H]1CCN([C@@H](C)c2ccccc2)C1)S(=O)(=O)NCCc1c(-c2cccs2)n[nH]c1-c1cnccn1	32
CCN([C@@H]1CCN(C(C)c2ccc(F)cc2)C1)S(=O)(=O)NCCc1c(-c2cccs2)n[nH]c1-c1cnccn1 (stereo not given in full)	16

Tested on: not listed separately
Experiment: Aqueous solubility of the compound in water at pH 6.5

Structure (SMILES)	solubility [µg/mL]
CCCCCc1ccc(S(=O)(=O)NCCc2c(-c3cccs3)n[nH]c2-c2cccs2)cc1	0.2 (≈ 0.412 µM)
CN([C@@H]1CCN(Cc2ccccc2)C1)S(=O)(=O)NCCc1c(-c2cccs2)n[nH]c1-c1cnccn1	79 (≈ 151 µM)
CCN([C@@H]1CCN([C@@H](C)c2ccccc2)C1)S(=O)(=O)NCCc1c(-c2cccs2)n[nH]c1-c1cnccn1	76 (≈ 138 µM)
CCN([C@@H]1CCN(C(C)c2ccc(F)cc2)C1)S(=O)(=O)NCCc1c(-c2cccs2)n[nH]c1-c1cnccn1 (stereo not given in full)	129 (≈ 226 µM)

Target: T3, Polyunsaturated fatty acid 5-lipoxygenase (Homo sapiens, UniProt P09917)
T3 sequence (P09917 whole entry): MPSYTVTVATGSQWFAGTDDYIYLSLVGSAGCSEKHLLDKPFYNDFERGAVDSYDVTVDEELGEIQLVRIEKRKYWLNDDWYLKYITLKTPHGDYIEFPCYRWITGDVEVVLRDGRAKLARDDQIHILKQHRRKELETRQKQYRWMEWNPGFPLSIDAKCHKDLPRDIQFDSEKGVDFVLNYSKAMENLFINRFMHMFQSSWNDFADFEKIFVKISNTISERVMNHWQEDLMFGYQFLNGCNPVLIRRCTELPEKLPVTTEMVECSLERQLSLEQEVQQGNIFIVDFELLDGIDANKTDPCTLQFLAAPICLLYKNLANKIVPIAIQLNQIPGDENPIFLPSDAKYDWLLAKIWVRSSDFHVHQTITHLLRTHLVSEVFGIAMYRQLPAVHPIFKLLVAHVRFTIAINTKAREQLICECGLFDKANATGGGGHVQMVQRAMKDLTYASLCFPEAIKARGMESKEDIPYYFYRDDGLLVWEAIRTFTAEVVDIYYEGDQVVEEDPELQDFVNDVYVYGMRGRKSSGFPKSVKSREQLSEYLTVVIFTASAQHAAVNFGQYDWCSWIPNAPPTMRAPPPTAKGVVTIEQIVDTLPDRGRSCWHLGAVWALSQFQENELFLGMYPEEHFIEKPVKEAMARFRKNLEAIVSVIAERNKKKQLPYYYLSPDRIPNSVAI
Experiment: Inhibition of 5-LO

Structure (SMILES)	IC50 [nM]
CCN([C@@H]1CCN([C@@H](C)c2ccccc2)C1)S(=O)(=O)NCCc1c(-c2cccs2)n[nH]c1-c1cnccn1	5500

Target: T4, Polyunsaturated fatty acid lipoxygenase ALOX15 (Homo sapiens) (UniProt P16050)
T4 sequence (whole entry): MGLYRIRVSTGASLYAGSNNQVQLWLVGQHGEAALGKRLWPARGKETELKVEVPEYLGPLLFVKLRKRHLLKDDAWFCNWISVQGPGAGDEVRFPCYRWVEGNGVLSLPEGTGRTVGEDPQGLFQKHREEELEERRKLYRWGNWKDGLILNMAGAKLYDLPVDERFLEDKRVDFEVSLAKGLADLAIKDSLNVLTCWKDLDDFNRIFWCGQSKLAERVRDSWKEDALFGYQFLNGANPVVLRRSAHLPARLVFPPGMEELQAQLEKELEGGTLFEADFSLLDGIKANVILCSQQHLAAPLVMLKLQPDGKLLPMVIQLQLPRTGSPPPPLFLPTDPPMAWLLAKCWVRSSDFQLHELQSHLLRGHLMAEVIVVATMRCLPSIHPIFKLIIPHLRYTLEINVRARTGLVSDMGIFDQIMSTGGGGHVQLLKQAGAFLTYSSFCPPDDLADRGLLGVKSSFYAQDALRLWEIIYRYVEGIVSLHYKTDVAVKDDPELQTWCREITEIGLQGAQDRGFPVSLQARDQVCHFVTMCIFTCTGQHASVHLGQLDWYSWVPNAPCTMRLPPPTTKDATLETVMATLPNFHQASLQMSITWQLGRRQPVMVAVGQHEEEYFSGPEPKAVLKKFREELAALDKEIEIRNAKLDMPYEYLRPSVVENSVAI
Experiment: Inhibition of human 15-LO expressed in CHO cells at 1 uM by cell-based assay

Structure (SMILES)	inhibition [%]
COc1cccc(-c2[nH]nc(-c3cccs3)c2CCNS(=O)(=O)N(C)[C@@H]2CCN(Cc3ccccc3)C2)c1	51
CN([C@@H]1CCN(Cc2ccccc2)C1)S(=O)(=O)NCCc1c(-c2cccs2)n[nH]c1-c1cnccn1	81
CN([C@@H]1CCN(Cc2ccccc2)C1)S(=O)(=O)NCCc1c(-c2cccs2)n[nH]c1-c1cccs1	79

Target: T4, Polyunsaturated fatty acid lipoxygenase ALOX15 (Homo sapiens)
Experiment: Inhibition of human 15-LO expressed in CHO cells at 3 uM by cell-based assay

Structure (SMILES)	inhibition [%]
CCN([C@@H]1CCN([C@@H](C)c2ccccc2)C1)S(=O)(=O)NCCc1c(-c2cccs2)n[nH]c1-c1cnccn1	94
